Read-outs that look alike come from different tables or passages of the source.

Results on twelve molecules are retold here after patent publication US20100331348A1, “TROPANE DERIVATIVES USEFUL AS PESTICIDES” (SYNGENTA CROP PROTECTION, INC., priority 2007, published 2010).

Test [1] has as its system Aedes aegypti. Briefly: Aedes aegypti (Yellow fever mosquito) larvae test. The note with it: 48 h. It is filed as in vivo.
In test [2] the test system is Erysiphe graminis f.sp. tritici. Briefly: Erysiphe graminis f.sp. tritici (wheat powdery mildew) leaf disk assay. The note with it: Blumeria graminis, foliar, 96 h, preventive, four days after inoculation, read-out: control of fungal infection, Erysiphe graminis fsp. tritici. It is filed as in vivo.
For test [3], the system named is Puccinia recondita f.sp. tritici. Briefly: Puccinia recondita f.sp. tritici (wheat brown rust) leaf disk assay. Type of test: in vivo. Conditions: foliar, 216 h, preventive, nine days after inoculation, read-out: control of fungal infection, Puccinia recondita f.sp. tritici.
Test [4] deals with Pyricularia oryzae. Briefly: whole plant or invertebrate. Type of test: in vivo. The note with it: foliar, 96 h.
The subject of test [5] is Phytophthora infestans. Briefly: whole plant or invertebrate. It is filed as in vivo. The note with it: foliar, 96 h, read-out: control of fungal infection, Phytophthora infestans.
The subject of test [6] is Plasmopara viticola. Briefly: Plasmopara viticola (downy mildew of grapevine) leaf disk assay. Type of test: in vivo. Conditions: foliar, 168 h, preventive, seven days after inoculation, read-out: control of fungal infection, Plasmopara viticola.
The subject of test [7] is Plutella xylostella. Kind of test: Plutella xylostella (Diamond back moth) artificial diet test. The note with it: 120 h, read-out: control of Plutella xylostella.
Test [8] relates to Heliothis virescens. Kind of test: Heliothis virescens (Tobacco budworm) egg test on artificial diet. The note with it: 96 h, read-out: control of Heliothis virescens.
The test system of test [9] is Tetranychus urticae. The note with it: foliar, 192 h, read-out: control of Tetranychus urticae.
Test [10] has as its system Pythium ultimum. Kind of test: Pythium ultimum (Damping off) growth inhibition in potato dextrose broth. Type of test: cell-based. Conditions: Globisporangium ultimum, 48 hours, read-out: control of fungal infection, Pythium ultimum.
[11] abbreviates: read-out: control of fungal infection, Pyricularia oryzae (at least 60% list).

`Cc1ccc(CON=C2CC3CCC(C2)N3c2ncnc3sccc23)cc1` [Example 5.145] had a pest or weed control at 2 ppm in test [1] of at least 80%. The pest or weed control at 200 ppm in [2] was at least 80%; in test [3], at least 80%; in [4] (setting [11]), at least 60%; in test [5], at least 80%; in test [6] it was at least 80%; in test [7], at least 80%. The pest or weed control at 200 ppm in [8] and in [9] was at least 80% in each case.
Molecule `CCc1ncnc(N2[C@@H]3CC[C@H]2CC(Oc2ccc(C)nc2)C3)c1Cl` (stereo partly shown) [Example 2.151] yielded a pest or weed control at 2 ppm in test [1] of at least 80%. For the same molecule, the pest or weed control at 200 ppm in [2] is at least 80%. Besides, the inhibition of growth at 200 ppm in [10] was at least 60%.
As for `CCC(=O)c1ccc(OC2C[C@H]3CC[C@@H](C2)N3c2ncnc(CC)c2Cl)cc1` (stereo partly shown) [Example 2.166], the pest or weed control at 2 ppm in test [1] was at least 80%. The pest or weed control at 200 ppm in [3], in test [5], in test [8] and in test [9] was at least 80% throughout.
Take `CCc1ncnc(N2C3CCC2CC(=NOCc2ccc(Br)cc2F)C3)c1Cl` [Example 5.85]: the pest or weed control at 200 ppm in [7], in test [8] and in test [9] was at least 80% throughout.
With `CCc1ncnc(N2C3CCC2CC(=NOCc2noc(C)n2)C3)c1Cl` [Example 5.92], the pest or weed control at 2 ppm in [1] was at least 80%. The pest or weed control at 200 ppm in test [2], in test [3], in [7], in test [8] and in test [9] was at least 80% throughout.
`COc1ccc(CC2CC3CCC(C2)N3c2ncnc3sccc23)cc1` (stereo not shown) [Example 7.11] gave a pest or weed control at 2 ppm in [1] of at least 80%. In addition, the pest or weed control at 200 ppm was at least 80% in [3]; at least 60% in [4] (setting [11]); at least 80% in test [6]; at least 80% in [8]; at least 80% in [9].
`CCc1ncnc(N2C3CCC2CC(=NOCc2ccc(OC)cc2)C3)c1Cl` [Example 5.16] returned a pest or weed control at 2 ppm in test [1] of at least 80%. Further, the pest or weed control at 200 ppm in test [2], in test [3], in [6], in test [7], in [8] and in test [9] was at least 80% throughout.
Regarding `CCc1ncnc(N2C3CCC2CC(=NOCC2CC2)C3)c1Cl` [Example 5.3], in [1], the pest or weed control at 2 ppm is at least 80%. Also, the pest or weed control at 200 ppm in [2] and in [3] was at least 80% each time. In [10], the inhibition of growth at 200 ppm was at least 60%.
In test [1], `c1ccc(CON=C2CC3CCC(C2)N3c2ncnc3sccc23)nc1` [Example 5.149] came in with a pest or weed control at 2 ppm of at least 80%. The pest or weed control at 200 ppm in test [2] was at least 80%; in test [3] it was at least 80%; in [4] (read-out: control of fungal infection, Pyricularia oryzae (at least 80% list)) it was at least 80%. For the same molecule, in test [10], the inhibition of growth at 200 ppm was at least 60%.
`FC(F)(F)c1ccc(OC2C[C@H]3CC[C@@H](C2)N3c2ncnc3ccsc23)nc1` (stereo partly shown) [Example 2.77]: the pest or weed control at 200 ppm in test [2] is at least 80%; in [3] it was at least 80%; in test [4] (setting [11]), at least 60%. In addition, in test [10], the inhibition of growth at 200 ppm was at least 60%.
Molecule `CCc1ncnc(N2C3CCC2CC(=NOCc2csc(C)n2)C3)c1Cl` [Example 5.98] registered a pest or weed control at 2 ppm in test [1] of at least 80%. Also, the pest or weed control at 200 ppm in test [2] and in test [3] was at least 80% in each case. For the same molecule, the inhibition of growth at 200 ppm in test [10] is at least 60%.
The molecule `CCc1ncnc(N2C3CCC2CC(Cc2ccc(OC)cc2)C3)c1Cl` (stereo not shown) [Example 7.32] returned a pest or weed control at 2 ppm in [1] of at least 80%. The pest or weed control at 200 ppm in test [3], in test [7], in test [8] and in [9] was at least 80% each time.
